According to article PMC6820371, “Terbium-161 for PSMA-targeted radionuclide therapy of prostate cancer” (European Journal of Nuclear Medicine and Molecular Imaging, 2019):

How the values were obtained:
[1] = system: PC-3 PIP tumor cells; assay: Cell viability assay (MTT assay); assay type: cell-based, human; conditions: DTPA complexes, 0.01–20 MBq/mL; marginal reduction at higher concentration
Procedure: The detailed methods of these studies, including dosimetric calculations, are described in the Supplementary material. The results were analyzed for statistical significance by a two-way ANOVA with Sidak’s multiple comparison post-test using Graph Pad Prism (version 7).
Methods: Tumor cell viability was assessed using a 3-(4,5-dimethylthiazol-2-yl)-2,5-diphenyltetrazolium bromide (MTT) assay as described by Mosmann. PC-3 PIP tumor cells (2500 cells in 200 μL RPMI medium with supplements) were seeded in 96-well plates and incubated overnight (37°C; 5% CO2) to allow adhesion of the tumor cells. The supernatants were removed and the tumor cells were washed once with 200 μL PBS. Afterwards, the tumor cells were incubated in 200 μL RPMI medium (without supplements) containing ^161Tb-PSMA-617 or ^177Lu-PSMA-617 (0.01‒20 MBq/mL), respectively, or just RPMI medium without addition of radioligands. PSMA-negative PC-3 flu tumor cells were also treated with these radioligands under the same experimental conditions using the same concentration range. Additional cell viability assays were performed with PC-3 PIP tumor cells incubated with RPMI medium (without supplements) containing ^161Tb-diethylenetriaminepentaacetic acid (DPTA) or ^177Lu-DTPA (0.01 – 20 MBq/mL). After 4 h incubation (37 °C; 5% CO2), the tumor cells were washed once with 200 μL PBS, followed by the addition of 200 μL of RPMI medium (with supplements) to each well. The tumor cells were left to grow for 6 days under standard cell culture conditions (37 °C, 5% CO2). At Day 6 after treatment, MTT reagent (5 mg/mL in PBS, 30 μL per well) was added to each well to allow the formation of dark-violet formazan crystals within 4 h incubation. The crystals were dissolved by the addition of dimethyl sulfoxide to determine the absorbance at 560 nm using a microplate reader (Victor X3, Perkin Elmer). Cell viability was quantified by expressing the absorbance of the test samples as percentage of the absorbance of control (untreated) cell samples which was set to 100%. Statistical analysis was performed using a two-way ANOVA with Sidak’s multiple comparison post-test in Graph Pad Prism (version 7).

[2] = system: PC-3 PIP tumor cells; assay: Cell survival assay (clonogenic assay); assay type: cell-based, human; conditions: DTPA complexes, 0.01–10 MBq/mL; marginal reduction at higher concentration
[3] = set-up: method as in Benešová et al. 2018 [4]; conditions: saline, in the presence of l-ascorbic acid, up to 24 h; ref Benešová et al. 2018 [4]; cited from earlier work
[4] = system: PSMA-negative PC-3 flu tumor cells; assay: Tumor cell uptake and internalization; assay type: cell-based; conditions: 2–4 h incubation
[5] = system: PC-3 PIP tumor-bearing mice; set-up: method as in PMID 29684274; conditions: 5.0 MBq; cited from earlier work
[6] = system: mice inoculated with PC-3 PIP cells; assay: Additional therapy study (injection 2 days after tumor cell inoculation); assay type: in vivo; conditions: for Median Survival: control 26 days
Procedure: The day of the treatment, two days after tumor cell inoculation, was defined as Day 0 of the study (Table S7).
Endpoint criteria: The mice were monitored until they reached an endpoint (definition of endpoints, see Chapter 13) or over the whole period of 38 days when the study was terminated.
Data analysis of the therapy study: The tumor growth delay indices (TGDI2 and TGDI5) were calculated as reported in the Methods of the main manuscript. The median survival was determined using GraphPad Prism software (version 7).

[7] = system: PSMA-positive PC-3 PIP tumor cells; assay: Tumor cell uptake and internalization; assay type: cell-based, human; conditions: 2–4 h incubation
[8] = set-up: method as in Benešová et al. [4]; conditions: PBS pH 7.4; ref Benešová et al. [4]; cited from earlier work

In the case of `O=C([O-])CN(CCN(CC(=O)[O-])CC(=O)[O-])CCN(CC(=O)[O-])CC(=O)[O-].[161Tb+3]` [^161Tb-DPTA, ^161Tb-diethylenetriaminepentaacetic acid, reference compound], the “Viability of PC-3 PIP tumor cells” value [1] is reported as “not affected” and the “Survival of PC-3 PIP tumor cells” value [2] is reported as “not affected”.
With `O=C([O-])CN(CCN(CC(=O)[O-])CC(=O)[O-])CCN(CC(=O)[O-])CC(=O)[O-].[177Lu+3]` [^177Lu-DTPA, reference compound] the “Viability of PC-3 PIP tumor cells” value [1] was “not affected” and the “Survival of PC-3 PIP tumor cells” value [2] was “not affected”.
For `O=C([O-])CN1CCN(CC(=O)[O-])CCN(CC(=O)NCC2CCC(C(=O)N[C@@H](Cc3ccc4ccccc4c3)C(=O)NCCCC[C@H](NC(=O)N[C@@H](CCC(=O)O)C(=O)O)C(=O)O)CC2)CCN(CC(=O)[O-])CC1.[177Lu+3]` (stereo partly shown) [^177Lu-PSMA-617, reference compound], the “Stability (intact radioligand)” value [3] is listed as no less than 98%, the “Uptake in PC-3 flu tumor cells” value [4] is listed as less than 0.5% and the Last mouse euthanized [5] is listed as 40 days. For the same molecule, the Median Survival [5] was 32 days, the TGDI2 [5] was 2.1 ± 0.3 and the First mouse euthanized ([6]; 2.5 MBq) was 20 days. The TGDI2 ([6]; 2.5 MBq) was 0.8 ± 0.4, the TGDI5 ([6]; 2.5 MBq) was 1.0 ± 0.3 and the “Median Survival” value ([6]; 2.5 MBq) was 27 days. The Last mouse euthanized ([6]; 2.5 MBq, study end Day 38) was “study end”, the First mouse euthanized ([6]; 5.0 MBq) was 24 days and the TGDI2 ([6]; 5.0 MBq) was 1.0 ± 0.4. For the same molecule, the “Median Survival” value ([6]; 5.0 MBq) was 30 days, the Last mouse euthanized ([6]; 5.0 MBq, study end Day 38) was “study end” and the Survival ([6]; 10 MBq) was “survived until the end of the study at Day 38”. The “Cases in which tumors started to regrow” value ([6]; 10 MBq, from about Day 20 on) was 50%, the First mouse euthanized ([6]; 10 MBq, study end Day 38) was “Study end” and the Last mouse euthanized ([6]; 10 MBq, study end Day 38) was “study end”. The “PC-3 PIP tumor cell uptake” value [7] was 49–58%, the Internalized fraction ([7]; PC-3 PIP) was 9–12% and the “n-octanol/PBS distribution coefficient (logD value)” value [8] was “–4.4 ± 0.1”.
